Laboratory results reported in PubChem BioAssay (NCI).
“And” between values parts separate entries of the source, which are not always exact repeats. Identical values can stand only once.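 Method: 48-hour compound exposure of cells in 96-well plates, five concentrations, linear interpolation of endpoints. GI50 is the concentration that inhibits growth by half. Definition used: TGI = concentration required for complete inhibition of growth.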

How the values were obtained:
Test in all cases: NCI tumour cell line growth inhibition, 48 h
[1] = tested on: LOX IMVI melanoma
[2] = tested on: MDA-MB-435
[3] = tested on: HL-60(TB) leukemia
[4] = tested on: PC-3 prostate
[5] = tested on: HOP-92 NSCLC
[6] = tested on: SF-295 CNS
[7] = tested on: HCT-116 colon
[8] = tested on: UACC-62 melanoma
[9] = tested on: 786-0 renal
[10] = tested on: U251 CNS

SMILES | GI50 [1] | TGI [1] [µM] | GI50 [2] [µM] | TGI [2] [µM] | GI50 [3] | TGI [3] | GI50 [4] [µM] | TGI [4] | GI50 [5] [µM] | TGI [5] | GI50 [6] [µM] | TGI [6] | GI50 [7] [µM] | TGI [7] | GI50 [8] [µM] | TGI [8] [µM] | GI50 [9] [µM] | TGI [9] | GI50 [10] [µM] | TGI [10] [µM]
Cc1cc(C(=O)c2ccccc2)c(C)c2c1[nH]c1ccc(Cl)cc12 | 0.0642 µM | 10.3 | 0.0286 | 0.321 | 0.0398 µM | 1.78 µM | 0.0526 | > 43.9 µM | 1.71 | 21.2 µM | 0.0294 | 0.363 µM | 0.0437 | 4.74 µM | 0.0399 | 18.7 | 0.0629 | 3.51 µM | 0.0612 | 16.2
O=C1C(Cl)=C(Nc2cccc(C(F)(F)F)c2)C(=O)N1Cc1ccc(Cl)cc1 | 0.241 µM | 5.15 | – | 4.46 | 1.7 µM | > 100 µM | 0.298 | 16.8 µM | 15 | 33.1 µM | – | 16.2 µM | 0.0705 | 4.88 µM | – | 1.26 | < 0.0324 | 13.5 µM | 0.0371 | 13.1
CC1(C)C(=O)/C(=C\c2cccnc2)C[C@]2(C)[C@H]3CC[C@@H]4[C@@H](C(=O)/C=C/c5ccncc5)CC[C@@]4(C)[C@]3(C)CC[C@@H]12 | 1.38 µM | 2.95 | 1.98 | 4.77 | 1.78 µM | 6.35 µM | 1.65 | 4.55 µM | 1.48 | 3.39 µM | 1.95 | 4.31 µM | 1.62 | 3.16 µM | 1.61 | 3.46 | 1.85 | 3.41 µM | 1.62 | 3.03
Cc1ccc(-c2cc(O)c(-c3ccc(C)cc3C)cc2O)c(C)c1 | 1.92 µM | 17.2 | 6.98 | 45.1 | 10.3 µM | > 100 µM | 3.95 | 57.1 µM | 5.44 | 28.9 µM | 6.96 | 36.1 µM | 1.17 | 13.7 µM | 4.23 | 19.8 | 7.65 | 21.2 µM | 2.32 | 17.3
CC[C@H](C)C(=O)O[C@H]1C[C@H](O)C=C2C=C[C@H](C)[C@H](CC[C@@H](O)C[C@@H](O)CC(=O)O)[C@H]21 | > 100 µM | > 100 | > 100 | > 100 | > 100 µM | > 100 µM | > 100 | > 100 µM | 23 | > 100 µM | > 100 | > 100 µM | > 100 | > 100 µM | > 100 | > 100 | > 100 | > 100 µM | > 100 | > 100
CC(=O)c1cc(O)c2ccccc2c1O | 14.8 µM | 39.3 | 14.5 | 30.7 | 25.5 µM | 62.5 µM | 20.3 | 50.8 µM | 16.6 | 31 µM | 18.5 | 38.8 µM | 17.6 | 34.5 µM | 16.2 | 32.7 | 20 | 35.2 µM | 18.6 | 33.6
Cc1ccc(Sc2cc3c(oc2=O)-c2ccccc2OC3O)cc1 (configuration not stated) | 18 µM | 40 | 27.2 | 54.6 | 16.6 µM | 37.1 µM | 28 | 76.5 µM | 23.4 | 51.9 µM | 30.2 | 67.5 µM | 25.6 | 59.4 µM | 21.2 | 49.8 | 24.3 | 51.6 µM | 21.1 | 42.3
Cc1coc2c1C(OC(=O)C(C)C)C1(C)C(C)CCC(O)C1C2=O (configuration not stated) | – | > 100 | – | > 100 | – | > 100 µM | – | > 100 µM | – | > 100 µM | – | > 100 µM | – | > 100 µM | – | > 100 | – | > 100 µM | – | > 100
C[C@@H]1COCCN1c1cc(C2(O)C[C@H]3CC[C@@H](C2)O3)c2cnn(-c3ccn[nH]3)c2n1 (some centres not stated) | 0.0246 µM | 0.145 | 0.0685 | 0.692 | 0.172 µM | – | 0.277 | 24.4 µM | 0.114 | 0.879 µM | 0.0329 | 0.308 µM | 0.118 | > 100 µM | 0.05 | 0.384 | 0.0479 | > 100 µM | 0.137 | 8.62
C[C@@H](Nc1nc(Nc2ccc(F)c(Cl)c2)nc2ccccc12)C1CC1 | 1.68 µM | 3.25 | 3.93 | 15 | 2.45 µM | 6.32 µM | 2.19 | 8.04 µM | 1.6 | 5.79 µM | 1.88 | 8.92 µM | 1.49 | 3.2 µM | 2.68 | 14.3 | 1.69 | 3.45 µM | 3.72 | 14.5
CCN(Cc1c(Cl)cccc1Cl)c1ccc(CO)c(Cl)c1 | 16.9 µM | 32.6 | 9.22 | 22.4 | 8.17 µM | 25.7 µM | 11.3 | 23.9 µM | 0.606 | 9.64 µM | – | 1.37 µM | < 0.0379 | 11.3 µM | 0.0406 | 0.741 | 13.8 | 28.1 µM | 0.372 | 15.3
CC1=NN(c2nc(N)nc(/C=C\c3ccc([N+](=O)[O-])s3)n2)C(C)(C)C1 | > 100 µM | > 100 | 62.8 | > 100 | > 100 µM | > 100 µM | > 100 | > 100 µM | > 100 | > 100 µM | > 100 | > 100 µM | > 100 | > 100 µM | > 100 | > 100 | > 100 | > 100 µM | > 100 | > 100
Cn1cc(C2=C(N3CCOCC3)C(=O)NC2=O)c2ccccc21 | > 25 µM | > 25 | > 25 | > 25 | > 25 µM | > 25 µM | > 25 | > 25 µM | 14.7 | > 25 µM | > 25 | > 25 µM | > 25 | > 25 µM | > 25 | > 25 | > 25 | > 25 µM | > 25 | > 25
CNCCN=c1ccc2c3c1c(O)c1c(O)ccc(=O)c1c3[nH]n2CCNCCO | 0.0949 µM and 0.395 µM | – | – | 3.32 | 0.0496 µM and 0.314 µM | 0.663 µM and 1.22 µM | 0.41 | 6.66 µM and 4.9 µM | 0.199 | 2.64 µM and 1.37 µM | 0.0369 | 0.794 µM and 0.811 µM | 0.207 | 4.9 µM and 5.37 µM | 0.0741 | 3.07 | 0.05 | 1.79 µM and 0.677 µM | – | 0.287
CC(O)c1cc(C(=O)N[C@@H](C)Cn2ccc(-c3ccc(C#N)c(Cl)c3)n2)n[nH]1 (some centres not stated) | 87.2 µM | > 100 | 32.4 | > 100 | 0.0272 µM | 0.24 µM | 22.1 | > 100 µM | 26.5 | > 100 µM | 23.9 | > 100 µM | 45.7 | > 100 µM | 34.3 | > 100 | > 100 | > 100 µM | > 100 | > 100
O=c1oc2c(C(F)(F)F)cccc2cc1-c1csc(Nc2ccc(OCCF)cc2)n1 | 0.0467 µM | > 42.2 | 0.0324 | > 100 | 0.0248 µM | 0.0573 µM | 0.0446 | > 100 µM | 0.0975 | 3.88 µM | 0.0286 | 12.7 µM | 0.032 | 0.54 µM | 0.0507 | > 38.9 | 0.0611 | – | 0.0376 | 12
CS(=O)(=O)N(c1cc(-c2ccc3ncnc(Nc4cccc(Cl)c4)c3c2)cnc1Cl)S(C)(=O)=O | 0.427 µM | 2.26 | 0.443 | 4.07 | 0.284 µM | 6.48 µM | 0.539 | 3.63 µM | 0.158 | 0.891 µM | 0.542 | 3.17 µM | 0.622 | 3.74 µM | 0.312 | 2.21 | 0.506 | 6.76 µM | 0.782 | 8.07
O=C(O)C(Oc1nc(=S)[nH]c(=S)[nH]1)(c1ccc(Cl)cc1)c1ccc(Cl)cc1 | – | > 100 | – | > 100 | – | > 100 µM | – | > 100 µM | – | > 100 µM | – | > 100 µM | – | > 100 µM | – | > 100 | – | > 100 µM | – | > 100
CCCCCCCCCCCCCCCC1=NC(C)(C)CN1C(C)C | 1.45 µM | 2.8 | 1.44 | 2.93 | 0.91 µM | 2.4 µM | 1.37 | 3.68 µM | 1.1 | 3.45 µM | 1.74 | 3.3 µM | 1.22 | 2.46 µM | 1.67 | 3.14 | 1.59 | 2.94 µM | 1.51 | 2.84
CC(=C/c1ccccc1)/C=C1/NC(=S)N(/C=C2\C(=O)Oc3ccccc3C2=O)C1=O | – | > 100 | – | > 100 | – | > 100 µM | – | > 100 µM | – | > 65 µM | – | > 100 µM | – | > 100 µM | 40.7 | > 100 | 57.6 | > 100 µM | – | > 100
O=C(CCc1ccc(O)cc1)N/N=C/c1cc(Br)ccc1O | 2.07 µM | 16.8 | 6.31 | > 100 | 2.5 µM | 9.66 µM | 4.14 | > 100 µM | 4.9 | 49.3 µM | 3.25 | > 100 µM | 4.34 | > 100 µM | 2.44 | 7.02 | 3.73 | 70.7 µM | 3.2 | > 100
C=CC1=C(C)C2=NC1=CC1=NC(=C(CC)/C1=C\O)C=C1N=C3C(=C1C)C(=O)[C@H](C(=O)OC)C3=C1NC(=C2)[C@@H](C)[C@@H]1CCC(=O)O | – | > 100 | – | > 100 | – | 92.3 µM | – | > 100 µM | – | > 100 µM | – | > 100 µM | – | > 100 µM | – | > 100 | – | > 100 µM | – | > 100
N#CC1C=Cc2c(ccc3ccccc23)N1C(=O)c1ccccc1 (configuration not stated) | 0.319 µM | > 100 | 0.0383 | 0.664 | 0.171 µM | – | 0.333 | > 100 µM | 3.1 | > 100 µM | 0.0268 | 0.0747 µM | 0.0637 | > 100 µM | 0.243 | > 100 | 0.909 | > 100 µM | 0.387 | > 81.6
CC(C)=CCCC(C)C1=C(O)C(=O)C(C)=CC1=O (configuration not stated) | – | 15.1 | – | 43.5 | – | 0.586 µM | – | 33 µM | – | 3.67 µM | – | > 100 µM | – | 12.8 µM | – | 27.9 | – | 26.9 µM | – | > 56.1
O=C(O)c1cc2ccccc2c2c1C(=O)c1ccccc1-2 | – | > 100 | – | > 100 | – | > 100 µM | – | > 100 µM | – | > 100 µM | – | > 100 µM | – | > 100 µM | – | > 100 | – | > 100 µM | – | > 100
Nc1ncc(-c2cccc(S(N)(=O)=O)c2)c2scc(-c3ccc(F)c(Cl)c3)c12 | 4.84 µM | 9.67 | 4.68 | 10.1 | 4.76 µM | 11.7 µM | 6.83 | > 20.6 µM | 5.14 | 18.4 µM | 5.66 | 13.8 µM | 4.34 | 8.29 µM | 5.17 | 11.7 | 6.02 | 17 µM | 6.77 | > 17.5
COc1c(B(O)O)cc(F)cc1-c1nc2ccc3[nH]ncc3c2c2c1CCCC2 | 0.727 µM | 3.43 | 1.78 | 3.6 | 0.112 µM | 10.5 µM | 1.9 | 11.3 µM | < 0.01 | 14.4 µM | 1.76 | 10.8 µM | 0.322 | 10.3 µM | 1.55 | 5.85 | 0.279 | 5.84 µM | 1.6 | 13.1
